Where two headings read alike, the source gives them in different places.
Assays:
[1] = tested on: neutrophils migrated to the wounded area; assay: Tail fin amputation assay: neutrophil migration to the wounded area; type: in vivo, Zebrafish (Danio rerio)
Method: Zebrafish (Danio rerio) were maintained and handled according to the guidelines from the Zebrafish Model Organism Database (https://zfin.org/) and in compliance with the directives of the local animal welfare committee of Leiden University. To maintain circadian rhythmicity, adult fish were exposed to a 14 h light and 10 h dark cycle. Fertilization was performed by natural spawning at the beginning of the light period. Fertilized eggs were collected and raised at 28° C. in egg water (60 μg/ml Instant Ocean sea salts and 0.0025% methylene blue). The following zebrafish lines were used in this study: AB/TL wild type, the transgenic lines Tg(mpx:GFP^i114/mpeg1:mCherry^umsF001) (Bernut et al., (2014). Mycobacterium abscessus cording prevents phagocytosis and promotes abscess formation. Proc Natl Acad Sci USA 111, E943-952; Renshaw et al., (2006). A transgenic zebrafish model of neutrophilic inflammation. Blood 108, 3976-3978), and Tg(9xGCRE-HSV.UI123:EGFP)^ia20 (Benato et al., (2014). A living biosensor model to dynamically trace glucocorticoid transcriptional activity during development and adult life in zebrafish. Mol Cell Endocrinol 392, 60-72), and the mutant lines gba2^−/− (Lelieveld et al., (2019). Role of beta-glucosidase 2 in aberrant glycosphingolipid metabolism: model of glucocerebrosidase deficiency in zebrafish. J Lipid Res 60, 1851-1867) and gr^s357 (Ziv et al., (2013). An affective disorder in zebrafish with mutation of the glucocorticoid receptor. Mol Psychiatry 18, 681-691).
(§1) For the tail fin amputation experiments, 3 days post fertilization (dpf) larvae from the Tg(mpx:GFP^i114/mpeg1:mCherry^umsF001) line were anesthetized in 0.02% buffered aminobenzoic acid ethyl ester (tricaine) in egg water and placed on a 2% agarose-coated petri dish. The tails were partially amputated with a 1 mm sapphire blade (World Precision Instruments) under a Leica M165C stereomicroscope (Leica Microsystems, Wetzlar, Germany). Chemical treatment (or 0.1% DMSO as vehicle treatment) was started at 2 h before the amputation (pretreatment) and was continued for 4 h after the tail fin amputation (20 larvae per group, unless indicated otherwise), at which time point the larvae were fixed in 4% paraformaldehyde (PFA) overnight at 4° C. and stored at 4° C. until further examination. In some experiments, a 24 h treatment with miglustat, ME656 or MZ31 was started at 2 dpf, and these treatments were continued during the pretreatment and treatment with the other chemicals. For imaging of larvae from the Tg(mpx:GFP^i114/mpeg1:mCherry^umsF001) line, a LeicaMZ16FA fluorescence stereomicroscope with LAS 3.7 software was used. Neutrophils were detected by GFP fluorescence and macrophages by mCherry fluorescence. The neutrophil numbers were determined by blinded manual counting in a pre-determined area. When larvae from gba2^−/− or gr^s357mutant lines were used, neutrophil labeling was performed with the TSA fluorescein detection kit (PerkinElmer) for specific staining of Myeloperoxidase (Mpx)-positive cells, following the manufacturer's instructions.

[2] = tested on: il1b, il6, mmp9, mmp13, il8 mRNA; assay: qPCR of pro-inflammatory genes after tail wounding; type: in vivo, Zebrafish (Danio rerio)
From the text: as §1
(§2) For experiments in zebrafish, gene expression was measured using 3 dpf embryos. Groups of 15 larvae were collected in TRIzol reagent (Invitrogen) and mRNA was isolated using the miRNeasy mini kit (Qiagen), according to the manufacturer's instructions. For experiments in HeLa cells, samples were collected from a single well from 6 well plates (80% confluent) in TRIzol reagent and mRNA was isolated using the RNeasy mini kit. Zebrafish and cells samples were treated with DNAse utilizing the DNA-Free™ kit (Ambion). The cDNA synthesis was performed using iScript cDNA synthesis kit (Bio-Rad) using 1 μg of RNA per sample. For qPCR, 10 μM of forward and 10 μM of reverse primer, 12.5 μL of iQ SYBR Green Supermix (Bio-Rad), and 2 μL of cDNA were added to the qPCR reaction mixture. […] The qPCR reactions were performed on a MyiQ-single-color real-time PCR detection system (Bio-Rad) with initial denaturation for 3 min at 95° C. and 40 cycles of 15 s at 95.5° C., 15 s at 60° C., and 30 s at 72° C. Cycle threshold values (Ct values, i.e. the cycle numbers at which a threshold value of the fluorescence intensity was reached) were determined for each sample. The gene expression level for each sample was normalized using the expression of ppial (peptidylprolyl isomerase Ab (cyclophilin A)) for zebrafish samples, and 18S rRNA for human cells. The fold change per sample (compared to the respective control group) was calculated using the ΔΔCt method.

Larval body length = type: in vivo, Zebrafish (Danio rerio); conditions: 5 dpf, treatment from 2 hpf
Method: When the regeneration of the tail fins after wounding or the larval body length was used as a readout, chemical treatments of the embryos were started at 2 hours post fertilization (hpf) and continued until 5 dpf. During this period, solutions were refreshed daily. At 5 dpf, larvae were imaged using a LeicaMZ16FA fluorescence stereomicroscope supported by LAS 3.7 software, and the length of the larvae was measured using ImageJ software (15 larvae per treatment group). For the regeneration experiments, tail fins were amputated at 2 dpf and larvae were imaged at 5 dpf (15 larvae per treatment group). The newly grown tissue can be distinguished from the old tissue, enabling precise measurement of the size of the newly grown tissue using ImageJ software.

Gr = assay: Transactivation activity of Gr in Tg(9xGCRE-HSV.UI23:EGFP) reporter line; type: in vivo, Zebrafish (Danio rerio); conditions: 24 h treatment, 3 dpf larvae
Method: The Tg(9xGCRE-HSV.UI23:EGFP)^ia20 zebrafish reporter line expresses enhanced green fluorescent protein (EGFP) under the control of a promoter containing an array of nine GREs. To study the effect of chemical treatments on the transactivation activity of the Gr, 15 zebrafish embryos per group (2 dpf) were treated with the indicated compounds for 24 hours. The transactivation activity of Gr induced by the treatments was assessed using a LeicaMZ16FA fluorescence stereomicroscope supported by LAS 3.7 software. The integrated intensity of the EGFP signal in the larvae was determined using ImageJ software.

[3] = tested on: Gr target genes fkbp5, pck1 and nfkbiaa; assay: qPCR of Gr target genes fkbp5, pck1, nfkbiaa; type: in vivo, Zebrafish (Danio rerio)
Method: as §2

[4] = tested on: collagen antibody-induced arthritis (CAIA)

C[C@]12C=CC(=O)C=C1CC[C@@H]1[C@@H]2[C@@H](O)C[C@@]2(C)[C@H]1CC[C@]2(O)C(=O)CO[C@@H]1O[C@H](CO[C@@H]2O[C@H](CO)[C@@H](O)[C@H](O)[C@H]2O)[C@@H](O)[C@H](O)[C@H]1O [GbPdn, 21-O-Gentobiose-Prednisolone]
reduction in neutrophil migration in the presence of MZ31 ([1]; GBA2 inhibitor MZ31): abolished by MZ31 | migration of neutrophils towards the wounded area ([1]; wild type larvae, 4 h after tail wounding): decrease in the migration of neutrophils | expression of the pro-inflammatory genes il1b, il6 and il8 [2]: suppression of the expression | larval length (Larval body length): neither did it affect the length of the larvae | transactivation activity of Gr (GFP signal in GRE:GFP reporter fish line) (Gr): neither GPdn nor GbPdn induced the transactivation activity of the Gr | expression of Gr target genes fkbp5, pck1 and nfkbiaa [3]: lack of effect | day of maximal effect on arthritis score ([4]; 12.5 mg/kg i.p. daily from day 7): 15 days | day of maximal effect on arthritis score ([4]; 25 mg/kg i.p. daily from day 7): 14 days | day of maximal effect on arthritis score ([4]; 50 mg/kg i.p. daily from day 7): 13 days | arthritis scores after treatment initiation ([4]; all dose groups, daily i.p. from day 7): decreased rapidly after treatment initiation

Reference: US20260158149A1, “GLYCOSYLATED PRODRUGS” (UNIVERSITEIT LEIDEN, priority 2021, published 2026)
